Test results: patent US8841257B2, “Inhibitors of STAT3 and uses thereof” (Board of Regents, The University of Texas System, priority 2009, dated 2014)

Experiments:
STAT1 = molecular target: T1, STAT1 (Homo sapiens, UniProt P42224); experiment: IFNγ-stimulated phosphoStat1 in BT20 cells; type: cell-based; parameters: endogenous in cells; host or cells: BT20 breast tumor cells; conditions: 5 μM, 2 h, then IFNγ 25 ng/mL, 20 and 45 min
T1 sequence (P42224 1-750): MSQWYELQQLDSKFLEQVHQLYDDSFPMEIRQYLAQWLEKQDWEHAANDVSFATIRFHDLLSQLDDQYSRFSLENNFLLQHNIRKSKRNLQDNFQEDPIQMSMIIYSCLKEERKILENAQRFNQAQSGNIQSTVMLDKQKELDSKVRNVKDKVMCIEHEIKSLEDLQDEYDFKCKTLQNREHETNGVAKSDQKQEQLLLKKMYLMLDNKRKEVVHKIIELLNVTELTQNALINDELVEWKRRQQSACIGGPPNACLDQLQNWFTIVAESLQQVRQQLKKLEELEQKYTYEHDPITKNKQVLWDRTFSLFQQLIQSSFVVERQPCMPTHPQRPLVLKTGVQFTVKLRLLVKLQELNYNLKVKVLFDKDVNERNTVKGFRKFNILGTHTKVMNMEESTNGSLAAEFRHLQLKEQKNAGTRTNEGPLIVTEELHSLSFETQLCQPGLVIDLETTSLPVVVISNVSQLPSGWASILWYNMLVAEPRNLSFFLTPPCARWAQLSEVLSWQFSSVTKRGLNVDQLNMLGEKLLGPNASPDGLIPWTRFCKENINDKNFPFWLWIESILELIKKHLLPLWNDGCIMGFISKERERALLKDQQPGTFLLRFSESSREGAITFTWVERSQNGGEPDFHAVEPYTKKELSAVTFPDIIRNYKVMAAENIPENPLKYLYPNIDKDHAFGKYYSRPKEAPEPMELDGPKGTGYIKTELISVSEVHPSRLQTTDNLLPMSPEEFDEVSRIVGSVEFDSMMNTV
Method: The compounds are selective for STAT3 over STAT1 in BT20 breast tumor cells. BT20 cells prepared as above and were treated with 5 μM of the compound of Example 1 for two hours then were treated with 25 ng/mL of interferon γ (IFNγ). […] (FIG. 4, bottom panel).

[1] = tested on: SUM149 and MDA-MB-231 cells; experiment: In vitro invasion of an artificial basement membrane; type: cell-based, human; conditions: 72 hours
Method: Effect of prodrugs on in vitro invasion of an artificial basement membrane by human breast cancer cells. SUM149 and MDA-MB-231 cells were trypsinized, resuspended in serum-supplemented medium, and counted. Cells were then washed 3 times with serum-free medium. Plates (6-well) compatible with transwell inserts with 8 μm pore-size polycarbonate filters (Fisher Scientific) were coated with Matrigel in cold serum-free DMEM/F12 at a final concentration of 0.7 mg/mL and held at room temperature for 40 minutes. Cells (in 500 μL serum-free medium) were added into the transwell inserts and incubated for 72 hours in the absence or presence 5 μM prodrug in DMSO (1% by volume). For a control, 10% FBS was used to evaluate the baseline extent of invasion of the different cell lines. After incubation, noninvading cells on the upper surface of the filter were removed with cotton swabs. Cells that had passed through the pores onto the lower side of the filter were fixed, stained with Hema-3 stain (Fisher Scientific), and quantified. The experiments were performed in triplicate and were repeated twice.

[2] = tested on: SUM149 inflammatory breast tumor cells; experiment: Anchorage-independent growth in soft agar, SUM149; type: cell-based; conditions: 28 days
Method: Assay for anchorage-independent growth in soft agar Cells (5×10^5) were suspended in 1× DMEM/HEPES, 10% heat-inactivated FBS, 0.13% bicarbonate, and 0.33% BBL agar. The cells were plated on 1% base agar plates (60 mm) containing 1× DMEM/HEPES, 10% heat-inactivated FBS, and 1% BBL agar. Fresh serum-containing medium was fed to the cells on 3-day intervals. The dishes were then incubated at 37° C. with 5% CO2 for 28 days. The colonies that grew in soft agar were photographed and counted. Data are expressed as the number of colonies formed per plate±S.E.M. and three plates were counted per cell line.

IFNγ-stimulated increase in phosphoStat1 (STAT1): did not inhibit
SMILES: C/C(=C\C(=O)N[C@H]1CCc2cccc3c2N(C1=O)[C@H](C(=O)N[C@H](C)CCC(N)=O)C3)c1ccc(C(F)(F)P(=O)(OCOC(=O)C(C)(C)C)OCOC(=O)C(C)(C)C)cc1 [Example 1, (2E)-3-[4-[[bis[(2,2-dimethyl-1-oxopropoxy)methoxy]phosphinyl]difluoromethyl]phenyl]-but-2-enoyl-Haic-(R)-4-aminopentamide]
invasion through the artificial basement membrane ([1]; 5 μM in DMSO): inhibited invasion | effectiveness in invasion assay relative to Example 8 ([1]; 5 μM): more effective | colony formation in soft agar [2]: inhibition of colony formation
